In the assay the target is human GLP1R (Homo sapiens (Human), UniProt P43220). The experiment in a line: In vitro cAMP signal activation in human GLP1R stably-expressing cell line (hGLP1R-HEK293). Particulars: cAMP concentration in hGLP1R-HEK293; 100% = 1 nM human GLP-1 (7-37). The format is cell-based.
human GLP1R, sequence (P43220 24-463): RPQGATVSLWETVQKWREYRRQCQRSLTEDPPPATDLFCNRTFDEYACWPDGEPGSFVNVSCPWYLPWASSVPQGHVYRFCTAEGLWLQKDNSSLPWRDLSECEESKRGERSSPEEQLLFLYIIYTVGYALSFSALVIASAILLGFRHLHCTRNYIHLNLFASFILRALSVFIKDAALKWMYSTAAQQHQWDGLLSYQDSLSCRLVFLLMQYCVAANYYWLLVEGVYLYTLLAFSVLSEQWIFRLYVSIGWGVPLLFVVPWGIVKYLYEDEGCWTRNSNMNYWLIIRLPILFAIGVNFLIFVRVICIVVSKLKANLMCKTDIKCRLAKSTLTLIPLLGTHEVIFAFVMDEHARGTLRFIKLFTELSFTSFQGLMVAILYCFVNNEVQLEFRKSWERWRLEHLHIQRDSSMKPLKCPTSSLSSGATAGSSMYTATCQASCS
One may read the EC50 as the concentration needed to bring the measured effect to its halfway point. Read a high EC50 as lower potency in that assay. `Cc1cc(-n2nc3c(c2-n2ccn(-c4ccc5c(cnn5C)c4)c2=O)CN(C(=O)c2cc4cc(C5CCOCC5)ccc4n2[C@@]2(c4noc(=O)[nH]4)C[C@@H]2C)CC3)cc(C)c1Cl` [compound 55, 3-[(1S,2S)-1-[2-[2-(4-chloro-3,5-dimethylphenyl)-3-[3-(1-methylindazol-5-yl)-2-oxoimidazol-1-yl]-6,7-dihydro-4H-pyrazolo[4,3-c]pyridine-5-carbonyl]-5-(oxan-4-yl)indol-1-yl]-2-methylcyclopropyl]-4H-1,2,4-oxadiazol-5-one] gave an EC50 of 3.7 nM. This counts as single-digit nanomolar.
In the case of `COCCn1ncc2cc(-n3ccn(-c4c5c(nn4-c4cc(C)c(F)c(C)c4)CCN(C(=O)c4cc6cc(C7CCOCC7)cnc6n4[C@@]4(c6noc(=O)[nH]6)C[C@@H]4C)C5)c3=O)ccc21` [compound 56, 3-[(1S,2S)-1-[2-[2-(4-fluoro-3,5-dimethylphenyl)-3-[3-[1-(2-methoxyethyl)indazol-5-yl]-2-oxoimidazol-1-yl]-6,7-dihydro-4H-pyrazolo[4,3-c]pyridine-5-carbonyl]-5-(oxan-4-yl)pyrrolo[2,3-b]pyridin-1-yl]-2-methylcyclopropyl]-4H-1,2,4-oxadiazol-5-one] it was 3.4 nM; in that of `COCCN(C(C)=O)C12C3C4C1C1C2C3C41n1ccn(-c2c3c(nn2-c2cc(C)c(F)c(C)c2)CCN(C(=O)c2cc4cc(C5CCOCC5)ccc4n2[C@@]2(c4noc(=O)[nH]4)C[C@@H]2C)[C@H]3C)c1=O` (stereo partly drawn) [compound 57, N-[4-[3-[(4S)-2-(4-fluoro-3,5-dimethylphenyl)-4-methyl-5-[1-[(1S,2S)-2-methyl-1-(5-oxo-4H-1,2,4-oxadiazol-3-yl)cyclopropyl]-5-(oxan-4-yl)indole-2-carbonyl]-6,7-dihydro-4H-pyrazolo[4,3-c]pyridin-3-yl]-2-oxoimidazol-1-yl]cuban-1-yl]-N-(2-methoxyethyl)acetamide], 8.1 nM.
In the case of `COCCn1ncc2cc(-n3ccn(-c4c5c(nn4-c4ccc(F)c(C)c4)CCN(C(=O)c4cc6cc(N7CCOC(C)(C)C7)ccc6n4[C@@]4(c6noc(=O)[nH]6)C[C@@H]4C)C5)c3=O)ccc21` [compound 58, 3-[(1S,2S)-1-[5-(2,2-dimethylmorpholin-4-yl)-2-[2-(4-fluoro-3-methylphenyl)-3-[3-[1-(2-methoxyethyl)indazol-5-yl]-2-oxoimidazol-1-yl]-6,7-dihydro-4H-pyrazolo[4,3-c]pyridine-5-carbonyl]indol-1-yl]-2-methylcyclopropyl]-4H-1,2,4-oxadiazol-5-one] it was 7.6 nM; in that of `Cc1cc(-n2nc3c(c2-n2ccn(-c4ccc5c(cnn5C)c4)c2=O)CN(C(=O)c2cc4cc([C@H]5CCOC(C)(C)C5)ccc4n2[C@@]2(c4noc(=O)[nH]4)C[C@@H]2C)CC3)cc(C)c1F` [compound 59, 3-[(1S,2S)-1-[5-[(4S)-2,2-dimethyloxan-4-yl]-2-[2-(4-fluoro-3,5-dimethylphenyl)-3-[3-(1-methylindazol-5-yl)-2-oxoimidazol-1-yl]-6,7-dihydro-4H-pyrazolo[4,3-c]pyridine-5-carbonyl]indol-1-yl]-2-methylcyclopropyl]-4H-1,2,4-oxadiazol-5-one], 1.5 nM; in that of `Cc1cc(C)cc(-n2nc3c(c2-n2ccn(-c4ccc5c(cnn5C)c4)c2=O)CN(C(=O)c2cc4cc(C5CCOC(C)(C)C5)ccc4n2[C@@]2(c4noc(=O)[nH]4)C[C@@H]2C)CC3)c1` (some centres unmarked) [compound 60], 4.9 nM.
In the case of `Cc1cc(-n2nc3c(c2-n2ccn(-c4ccc5c(cnn5C)c4)c2=O)[C@H](C)N(C(=O)c2cc4cc([C@H]5CCO[C@@H](C)C5)ccc4n2[C@@]2(c4noc(=O)[nH]4)C[C@@H]2C)CC3)cc(C)c1F` [compound 61, 3-[(1S,2S)-1-[2-[(4S)-2-(4-fluoro-3,5-dimethylphenyl)-4-methyl-3-[3-(1-methylindazol-5-yl)-2-oxoimidazol-1-yl]-6,7-dihydro-4H-pyrazolo[4,3-c]pyridine-5-carbonyl]-5-[(2S,4S)-2-methyloxan-4 yl]indol-1-yl]-2-methylcyclopropyl]-4H-1,2,4-oxadiazol-5-one] it was 1.6 nM; in that of `COCCn1ncc2cc(-n3ccn(-c4c5c(nn4-c4cc(C)c(F)c(C)c4)CCN(C(=O)c4cc6cc([C@H]7CCO[C@@H](C)C7)ccc6n4[C@@]4(c6noc(=O)[nH]6)C[C@@H]4C)[C@H]5C)c3=O)ccc21` [compound 62, 3-[(1S,2S)-1-[2-[(4S)-2-(4-fluoro-3,5-dimethylphenyl)-3-[3-[1-(2-methoxyethyl)indazol-5-yl]-2-oxoimidazol-1-yl]-4-methyl-6,7-dihydro-4H-pyrazolo[4,3-c]pyridine-5-carbonyl]-5-[(2S,4S)-2-methyloxan-4-yl]indol-1-yl]-2-methylcyclopropyl]-4H-1,2,4-oxadiazol-5-one], 1.1 nM; in that of `COCCn1ncc2cc(-n3ccn(-c4c5c(nn4-c4cc(C)c(F)c(C)c4)CCN(C(=O)c4cc6cc(C7CCOCC7)cc(F)c6n4[C@@]4(c6noc(=O)[nH]6)C[C@@H]4C)[C@H]5C)c3=O)ccc21` [compound 63, 3-[(1S,2S)-1-[7-fluoro-2-[(4S)-2-(4-fluoro-3,5-dimethylphenyl)-3-[3-[1-(2-methoxyethyl)indazol-5-yl]-2-oxoimidazol-1-yl]-4-methyl-6,7-dihydro-4H-pyrazolo[4,3-c]pyridine-5-carbonyl]-5-(oxan-4-yl)indol-1-yl]-2-methylcyclopropyl]-4H-1,2,4-oxadiazol-5-one], 1.1 nM.
`Cc1cc(-n2nc3c(c2-n2ccn(-c4ccc5c(cnn5[C@@H]5CCOC5)c4)c2=O)[C@H](C)N(C(=O)c2cc4cc(C5CCOCC5)cc(F)c4n2[C@@]2(c4noc(=O)[nH]4)C[C@@H]2C)CC3)cc(C)c1F` [compound 64] registered a half-maximal effective concentration (EC50) of 2 nM.
The figure for `Cc1cc(-n2nc3c(c2-n2ccn(-c4ccc5c(cnn5C)c4F)c2=O)[C@H](C)N(C(=O)c2cc4cc([C@H]5CCOC(C)(C)C5)ccc4n2[C@@]2(c4noc(=O)[nH]4)C[C@@H]2C)CC3)cc(C)c1Cl` [compound 65, 3-[(1S,2S)-1-[2-[(4S)-2-(4-chloro-3,5-dimethylphenyl)-3-[3-(4-fluoro-1-methylindazol-5-yl)-2-oxoimidazol-1-yl]-4-methyl-6,7-dihydro-4H-pyrazolo[4,3-c]pyridine-5-carbonyl]-5-[(4S)-2,2-dimethyloxan-4-yl]indol-1-yl]-2-methylcyclopropyl]-4H-1,2,4-oxadiazol-5-one] is 3.5 nM; for `Cc1cc(-n2nc3c(c2-n2ccn(-c4ccc5c(cnn5C)c4)c2=O)[C@H](C)N(C(=O)c2cc4cc([C@H]5CCOC(C)(C)C5)ccc4n2[C@@]2(c4noc(=O)[nH]4)C[C@@H]2C)CC3)cc(C)c1F` [compound 66, 3-[(1S,2S)-1-[5-[(4S)-2,2-dimethyloxan-4-yl]-2-[(4S)-2-(4-fluoro-3,5-dimethylphenyl)-4-methyl-3-[3-(1-methylindazol-5-yl)-2-oxoimidazol-1-yl]-6,7-dihydro-4H-pyrazolo[4,3-c]pyridine-5-carbonyl]indol-1-yl]-2-methylcyclopropyl]-4H-1,2,4-oxadiazol-5-one] it is 0.81 nM; for `Cc1cc(-n2nc3c(c2-n2ccn(-c4ccc5c(cnn5C)c4Cl)c2=O)[C@H](C)N(C(=O)c2cc4cc([C@H]5CCOC(C)(C)C5)ccc4n2[C@@]2(c4noc(=O)[nH]4)C[C@@H]2C)CC3)cc(C)c1F` [compound 68, 3-[(1S,2S)-1-[2-[(4S)-3-[3-(4-chloro-1-methylindazol-5-yl)-2-oxoimidazol-1-yl]-2-(4-fluoro-3,5-dimethylphenyl)-4-methyl-6,7-dihydro-4H-pyrazolo[4,3-c]pyridine-5-carbonyl]-5-[(4S)-2,2-dimethyloxan-4-yl]indol-1-yl]-2-methylcyclopropyl]-4H-1,2,4-oxadiazol-5-one] it is 1.8 nM.
The compound `Cc1cc(-n2nc3c(c2-n2ccn(-c4ccc5c(cnn5C)c4F)c2=O)[C@H](C)N(C(=O)c2cc4cc([C@H]5CCOC(C)(C)C5)ccc4n2[C@@]2(c4noc(=O)[nH]4)C[C@@H]2C)CC3)ccc1F` [compound 69, 3-[(1S,2S)-1-[5-[(4S)-2,2-dimethyloxan-4-yl]-2-[(4S)-3-[3-(4-fluoro-1-methylindazol-5-yl)-2-oxoimidazol-1-yl]-2-(4-fluoro-3-methylphenyl)-4-methyl-6,7-dihydro-4H-pyrazolo[4,3-c]pyridine-5-carbonyl]indol-1-yl]-2-methylcyclopropyl]-4H-1,2,4-oxadiazol-5-one] had an EC50 of 2.8 nM.
The compound `Cc1cc(-n2nc3c(c2-n2ccn(-c4cc5cnn(C)c5cc4F)c2=O)[C@H](C)N(C(=O)c2cc4cc([C@H]5CCOC(C)(C)C5)ccc4n2[C@@]2(c4noc(=O)[nH]4)C[C@@H]2C)CC3)cc(C)c1F` [compound 70] yielded a concentration giving a half-maximal response (EC50) of 1.5 nM. Against the preceding compound, the EC50 is about 1.9-fold lower.
The compound `COCCn1ncc2cc(-n3ccn(-c4c5c(nn4-c4cc(C)c(F)c(C)c4)CCN(C(=O)c4cc6cc([C@H]7CCOC(C)(C)C7)ccc6n4[C@@]4(c6noc(=O)[nH]6)C[C@@H]4C)[C@H]5C)c3=O)c(F)cc21` [compound 71, 3-[(1S,2S)-1-[5-[(4S)-2,2-dimethyloxan-4-yl]-2-[(4S)-2-(4-fluoro-3,5-dimethylphenyl)-3-[3-[6-fluoro-1-(2-methoxyethyl)indazol-5-yl]-2-oxoimidazol-1-yl]-4-methyl-6,7-dihydro-4H-pyrazolo[4,3-c]pyridine-5-carbonyl]indol-1-yl]-2-methylcyclopropyl]-4H-1,2,4-oxadiazol-5-one] yielded an EC50 of 1.3 nM.
The figure for `Cc1cc(-n2nc3c(c2-n2ccn(-c4ccc5c(cnn5C)c4Cl)c2=O)[C@H](C)N(C(=O)c2cc4cc(C5CCOCC5)ccc4n2[C@@]2(c4noc(=O)[nH]4)C[C@@H]2C)CC3)cc(C)c1F` [compound 72, 3-[(1S,2S)-1-[2-[(4S)-3-[3-(4-chloro-1-methylindazol-5-yl)-2-oxoimidazol-1-yl]-2-(4-fluoro-3,5-dimethylphenyl)-4-methyl-6,7-dihydro-4H-pyrazolo[4,3-c]pyridine-5-carbonyl]-5-(oxan-4-y)indol-1-yl]-2-methylcyclopropyl]-4H-1,2,4-oxadiazol-5-one] is 2.3 nM.

The values above are taken from patent publication US10858356B2, “Pyrazolopyridine derivative having GLP-1 receptor agonist effect” (Chugai Seiyaku Kabushiki Kaisha, priority 2016, dated 2020).
